The record followed here is patent publication US20220275018A1, “NOVEL SPIROBICYCLIC INTERMEDIATES” (Janssen Pharmaceutica NV, priority 2019, published 2022).

Sequence of human PRMT5 complex enzyme (O14744 whole entry): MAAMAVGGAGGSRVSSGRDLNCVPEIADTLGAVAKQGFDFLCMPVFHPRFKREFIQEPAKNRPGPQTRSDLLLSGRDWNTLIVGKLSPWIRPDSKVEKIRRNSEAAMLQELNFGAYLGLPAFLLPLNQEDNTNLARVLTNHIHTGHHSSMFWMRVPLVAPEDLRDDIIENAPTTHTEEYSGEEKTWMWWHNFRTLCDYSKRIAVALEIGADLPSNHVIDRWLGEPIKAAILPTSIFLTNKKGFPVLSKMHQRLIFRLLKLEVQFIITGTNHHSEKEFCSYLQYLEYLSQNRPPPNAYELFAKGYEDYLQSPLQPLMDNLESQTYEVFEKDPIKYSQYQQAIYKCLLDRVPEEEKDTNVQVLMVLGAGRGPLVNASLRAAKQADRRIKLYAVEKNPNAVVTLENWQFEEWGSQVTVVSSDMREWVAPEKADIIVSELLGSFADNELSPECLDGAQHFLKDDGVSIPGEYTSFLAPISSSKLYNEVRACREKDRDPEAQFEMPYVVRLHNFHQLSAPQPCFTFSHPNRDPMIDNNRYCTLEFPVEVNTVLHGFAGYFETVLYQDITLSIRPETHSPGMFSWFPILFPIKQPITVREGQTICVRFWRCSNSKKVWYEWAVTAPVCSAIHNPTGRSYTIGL
Sequence of human PRMT5 complex enzyme (Q9BQA1 whole entry partner): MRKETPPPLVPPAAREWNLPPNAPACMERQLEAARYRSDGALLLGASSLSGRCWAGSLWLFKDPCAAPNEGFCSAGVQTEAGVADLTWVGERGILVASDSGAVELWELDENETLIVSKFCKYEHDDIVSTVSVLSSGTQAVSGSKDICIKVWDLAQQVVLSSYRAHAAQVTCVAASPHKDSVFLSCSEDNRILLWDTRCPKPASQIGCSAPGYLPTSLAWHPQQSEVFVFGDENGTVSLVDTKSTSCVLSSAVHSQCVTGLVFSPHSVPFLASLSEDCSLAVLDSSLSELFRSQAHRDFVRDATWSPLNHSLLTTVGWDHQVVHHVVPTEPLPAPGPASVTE

The first series addresses human PRMT5 complex enzyme (Homo sapiens, UniProt O14744). The series can be described thus: PRMT5 inhibition study ([3H]SAM / Histone H4 methylation, filter scintillation counting). In kind it is biochemical. The settings on record: 30 μM test compound; 120 min at 22° C.; 600 nM [3H]SAM, 250 nM Histone H4 full length; percent inhibition of the control enzyme activity. As for the experimental part: The test compound, reference compound, or water (control) were incubated for 120 min at 22° C. with about 200 ng human PRMT5 complex enzyme, 600 nM [^3H]SAM and 250 nM Histone H4 full length in a buffer containing 45 mM Tris-HCl (pH 9), 45 mM NaCl, 4.5 mM MgCl2 and 3.6 mM DTT (Dithiothreitol).
For control basal measurements, the enzyme was omitted from the reaction mixture. Following incubation, the reaction was stopped by adding 33 mM citric acid and the samples were filtered rapidly in vacuo through glass fiber filters (GF/B, Packard) presoaked with 33 mM citric acid and rinsed several times with ice-cold 33 mM citric acid using a 96-sample cell harvester (Unifilter, Packard). The filters were dried then counted for radioactivity in a scintillation counter (Topcount, Packard) using a scintillation cocktail (Microscint 0, Packard).
The results were expressed as a percent inhibition of the control enzyme activity.
On to `Nc1ncnc2c1ncn2[C@@H]1O[C@]2(C[C@H](O)C2)[C@@H](O)[C@H]1O`, for which the inhibition – broadly, the drop in the measured response relative to a control, in per cent – at 30 µM is 37.7%.

Consider `Nc1ncnc2c1ncn2[C@@H]1O[C@]2(C[C@@H](O)C2)[C@@H](O)[C@H]1O`, for which the inhibition at 30 µM was determined as 70.3%.

As for `Nc1ncnc2c1ccn2[C@@H]1C[C@]2(C[C@H](Cc3cccnc3)C2)[C@@H](O)[C@H]1O`, the inhibition at 30 µM was 100%.

Regarding `Nc1ncnc2c1ccn2[C@@H]1C[C@]2(C[C@@H](Cc3cccnc3)C2)[C@@H](O)[C@H]1O`, the inhibition at 30 µM was determined as 99.8%.

Regarding `Nc1ncnc2c1ccn2[C@@H]1C[C@]2(C[C@@H](Cc3ccn4ccnc4c3)C2)[C@@H](O)[C@H]1O`, the inhibition at 30 µM is 102%.

Take `CCCN[C@H]1C[C@]2(C[C@@H](n3cnc4c(N)ncnc43)[C@H](O)[C@@H]2O)C1`: the inhibition at 30 µM was found to be 69.8%.

In the case of `Nc1ncnc2c1ccn2[C@@H]1O[C@]2(C[C@@H](N)C2)[C@@H](O)[C@H]1O`, the inhibition at 30 µM was found to be 46.3%.

Take `CCCN[C@H]1C[C@]2(C1)O[C@@H](n1cnc3c(N)ncnc31)[C@H](O)[C@@H]2O`: the inhibition at 30 µM was 33.8%.

As to `Nc1ncnc2c1ncn2[C@@H]1O[C@@]2(CC[C@H]2O)C(O)C1O` (stereo partly drawn), the inhibition at 30 µM amounted to 98%.

Take `Nc1ncnc2c1ncn2[C@@H]1O[C@@]2(CC[C@@H]2O)C(O)C1O` (stereo partly drawn): the inhibition at 30 µM amounted to 42%.

Turning to `NC[C@H]1C[C@]12O[C@@H](n1cnc3c(N)ncnc31)C(O)C2O` (stereo partly drawn), the inhibition at 30 µM worked out at 79%.

In the case of `CCCN(C)C[C@H]1C[C@]12O[C@@H](n1cnc3c(N)ncnc31)C(O)C2O` (stereo partly drawn), the inhibition at 30 µM was found to be 16%.

Take `CCCNC[C@H]1C[C@]12O[C@@H](n1cnc3c(N)ncnc31)C(O)C2O` (stereo partly drawn): the inhibition at 30 µM was found to be 39%.

Take `Nc1ncnc2c1ncn2[C@@H]1O[C@@]2(C[C@H]2O)C(O)C1O` (stereo partly drawn): the inhibition at 30 µM amounted to 72%.

Take `Nc1ncnc2c1ncn2[C@@H]1O[C@@]2(C[C@@H]2CO)C(O)C1O` (stereo partly drawn): the inhibition at 30 µM is 29%.

Take `Nc1ncnc2c1ncn2[C@@H]1O[C@]2(C[C@@H]2CO)C(O)C1O` (stereo partly drawn): the inhibition at 30 µM was 84%.

Consider `Nc1ncnc2c1ncn2[C@@H]1O[C@]2(C[C@H]2CO)C(O)C1O` (stereo partly drawn), for which the inhibition at 30 µM came to 31%.

Take `Nc1ncnc2c1ncn2[C@@H]1O[C@@]2(C[C@H]2CO)C(O)C1O` (stereo partly drawn) [drawing 332]: the inhibition at 30 µM amounted to 36.4%.

Turning to `Nc1ncnc2c1ncn2[C@@H]1O[C@@]2(C[C@H]2CO)C(O)C1O` (stereo partly drawn) [drawing 333], the “% PRMT5 inhibition at 30 μM” value amounted to 55.9%.

System in another series: not given
Assay: not given
Conditions: not given
In the case of `C=C1O[C@@H]2OC(C)(C)O[C@@H]2[C@@H]1OCc1ccc2ccccc2c1` [Compound 66.2], the melting point (in general, the temperature, or range, at which the solid turns liquid) came to 102.01 °C.

`CC1(C)O[C@H]2OC3(CC(=O)C3)[C@@H](OCc3ccc4ccccc4c3)[C@H]2O1` [Compound 66.4] yielded a melting point of 101.79 °C.
